The target in assay [1] is T1, GSPT1 (Homo sapiens, UniProt P15170+Q96SW2).
T1 construct: endogenous in cells; host or cells: hPBMCs (Milecell Biotechnologies)
As to the kind of experiment: Western-blot assay of substrate protein degradation in hPBMCs, GSPT1. It is filed as cell-based. The settings on record: 24 hours of compound treatment, compounds tested at 50 nM and 500 nM (concentration of the table not stated).

Assay [2] has as its target T2, WEE1 (Homo sapiens, UniProt P30291+Q96SW2).
T2 construct: endogenous in cells; host or cells: hPBMCs (Milecell Biotechnologies)
As to the kind of experiment: Western-blot assay of substrate protein degradation in hPBMCs, WEE1. It is filed as cell-based. The settings on record: 24 hours of compound treatment, compounds tested at 50 nM and 500 nM (concentration of the table not stated).

The subject of assay [3] is TMD8. As to the kind of experiment: Tumor cell proliferation inhibition (CellTiter-Meiluncell Luminescent Cell Viability Assay), TMD8. The settings on record: Homo sapiens, TMD8, 96 h, read-out: inhibitory activity (IC50, nM) against tumor cells proliferation, TMD8.
The target in assay [4] is T3, IKZF2 (Homo sapiens, UniProt Q96SW2+Q9UKS7).
T3 construct: endogenous in cells; host or cells: hPBMCs (Milecell Biotechnologies)
T3 sequence (Q9UKS7 whole entry): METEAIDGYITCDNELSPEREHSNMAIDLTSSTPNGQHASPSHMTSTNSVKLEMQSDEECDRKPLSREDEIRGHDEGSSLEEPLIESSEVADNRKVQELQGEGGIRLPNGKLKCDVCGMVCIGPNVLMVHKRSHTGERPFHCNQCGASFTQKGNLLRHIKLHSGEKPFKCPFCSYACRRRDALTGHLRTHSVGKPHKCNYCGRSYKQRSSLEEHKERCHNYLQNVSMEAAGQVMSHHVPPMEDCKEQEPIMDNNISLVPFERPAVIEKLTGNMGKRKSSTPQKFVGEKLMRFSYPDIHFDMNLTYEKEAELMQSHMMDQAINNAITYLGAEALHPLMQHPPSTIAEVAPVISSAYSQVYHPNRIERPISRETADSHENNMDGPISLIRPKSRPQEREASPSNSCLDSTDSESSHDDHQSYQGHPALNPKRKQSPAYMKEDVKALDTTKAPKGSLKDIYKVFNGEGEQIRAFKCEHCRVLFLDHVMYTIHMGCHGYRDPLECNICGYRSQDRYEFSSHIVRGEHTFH
T3 sequence (Q96SW2 whole entry): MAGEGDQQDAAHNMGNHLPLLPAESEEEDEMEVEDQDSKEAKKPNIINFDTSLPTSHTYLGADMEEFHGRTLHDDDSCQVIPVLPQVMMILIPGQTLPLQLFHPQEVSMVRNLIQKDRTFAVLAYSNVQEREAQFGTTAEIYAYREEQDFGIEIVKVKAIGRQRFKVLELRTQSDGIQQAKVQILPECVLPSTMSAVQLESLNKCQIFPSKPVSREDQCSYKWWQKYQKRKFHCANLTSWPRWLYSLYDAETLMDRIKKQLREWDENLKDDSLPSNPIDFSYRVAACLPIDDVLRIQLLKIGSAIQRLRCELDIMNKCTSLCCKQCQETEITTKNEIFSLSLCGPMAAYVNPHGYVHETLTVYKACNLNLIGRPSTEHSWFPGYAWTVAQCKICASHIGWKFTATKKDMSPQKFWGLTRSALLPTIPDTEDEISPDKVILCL
T3 sequence (Q16531 whole entry partner): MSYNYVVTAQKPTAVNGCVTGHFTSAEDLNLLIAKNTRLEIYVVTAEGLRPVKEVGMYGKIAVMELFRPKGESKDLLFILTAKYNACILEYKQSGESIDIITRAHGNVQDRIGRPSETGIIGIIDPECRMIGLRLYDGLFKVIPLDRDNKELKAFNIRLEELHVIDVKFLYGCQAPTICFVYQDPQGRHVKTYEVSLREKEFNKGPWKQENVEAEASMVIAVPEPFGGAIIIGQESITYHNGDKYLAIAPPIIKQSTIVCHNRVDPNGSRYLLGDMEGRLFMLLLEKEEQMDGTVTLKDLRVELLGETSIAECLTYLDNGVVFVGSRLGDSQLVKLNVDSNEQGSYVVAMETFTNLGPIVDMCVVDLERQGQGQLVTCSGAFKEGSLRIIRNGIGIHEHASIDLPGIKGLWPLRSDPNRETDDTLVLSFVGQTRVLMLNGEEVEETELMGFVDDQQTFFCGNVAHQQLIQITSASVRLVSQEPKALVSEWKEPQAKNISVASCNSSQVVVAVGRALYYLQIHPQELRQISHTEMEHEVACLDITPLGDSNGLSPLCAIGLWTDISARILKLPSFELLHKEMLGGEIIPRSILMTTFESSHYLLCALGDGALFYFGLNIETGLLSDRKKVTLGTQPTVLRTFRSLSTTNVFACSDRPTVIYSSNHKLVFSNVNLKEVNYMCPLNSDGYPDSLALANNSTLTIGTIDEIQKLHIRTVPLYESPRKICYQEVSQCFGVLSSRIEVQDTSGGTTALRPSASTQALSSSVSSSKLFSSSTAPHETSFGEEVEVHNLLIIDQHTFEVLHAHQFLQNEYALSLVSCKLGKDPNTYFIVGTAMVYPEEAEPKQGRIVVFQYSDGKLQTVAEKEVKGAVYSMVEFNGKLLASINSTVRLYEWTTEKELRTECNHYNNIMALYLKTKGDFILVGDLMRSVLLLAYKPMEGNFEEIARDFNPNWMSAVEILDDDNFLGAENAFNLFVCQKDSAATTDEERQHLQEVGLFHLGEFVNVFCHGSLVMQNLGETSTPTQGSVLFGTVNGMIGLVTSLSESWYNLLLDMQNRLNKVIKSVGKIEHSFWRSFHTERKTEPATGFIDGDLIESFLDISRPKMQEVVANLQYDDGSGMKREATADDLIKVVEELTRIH
As to the kind of experiment: Western-blot assay of substrate protein degradation in hPBMCs, IKZF2. It is filed as cell-based. The settings on record: 24 hours of compound treatment, compounds tested at 50 nM and 500 nM (concentration of the table not stated).

In assay [5] the test system is Human acute T lymphocytic leukemia cells (Molt-4). Briefly: Tumor cell proliferation inhibition (CellTiter-Meiluncell Luminescent Cell Viability Assay), Molt-4. The settings on record: MOLT-4, 96 h, read-out: inhibitory activity (IC50, nM) against tumor cells proliferation, Molt 4.
Assay [6] has as its target T4, CK1α (Homo sapiens, UniProt P48729+Q96SW2).
T4 construct: endogenous in cells; host or cells: hPBMCs (Milecell Biotechnologies)
Briefly: Western-blot assay of substrate protein degradation in hPBMCs, CK1α. It is filed as cell-based. The settings on record: 24 hours of compound treatment, compounds tested at 50 nM and 500 nM (concentration of the table not stated).

Assay [7] addresses T5, IKZF1 (Homo sapiens, UniProt Q13422+Q96SW2).
T5 construct: endogenous in cells; host or cells: hPBMCs (Milecell Biotechnologies)
As to the kind of experiment: Western-blot assay of substrate protein degradation in hPBMCs, IKZF1. It is filed as cell-based. The settings on record: 24 hours of compound treatment, compounds tested at 50 nM and 500 nM (concentration of the table not stated).

Assay [8] concerns Human breast cancer cells (MDA-MB-231). As to the kind of experiment: Tumor cell proliferation inhibition (CellTiter-Meiluncell Luminescent Cell Viability Assay), MDA-MB-231. The settings on record: MDA-MB-231, 96 h, read-out: inhibitory activity (IC50, nM) against tumor cells proliferation, MDA-MB-231.
Assay [9] concerns the target T6, human Cereblon WT GST-tagged protein (Homo sapiens, UniProt Q96SW2).
T6 construct: purchased CISBIO 64BDCRBNPEH
As to the kind of experiment: CRBN-binding affinity by HTRF (CEREBLON BINDING kit). The settings on record: HTRF inhibitory activity, CEREBLON BINDING kit; read-out: HTRF IC50.

The target of assay [10] is T7, IKZF3 (Homo sapiens, UniProt Q96SW2+Q9UKT9).
T7 construct: endogenous in cells; host or cells: hPBMCs (Milecell Biotechnologies)
T7 sequence (Q9UKT9 whole entry): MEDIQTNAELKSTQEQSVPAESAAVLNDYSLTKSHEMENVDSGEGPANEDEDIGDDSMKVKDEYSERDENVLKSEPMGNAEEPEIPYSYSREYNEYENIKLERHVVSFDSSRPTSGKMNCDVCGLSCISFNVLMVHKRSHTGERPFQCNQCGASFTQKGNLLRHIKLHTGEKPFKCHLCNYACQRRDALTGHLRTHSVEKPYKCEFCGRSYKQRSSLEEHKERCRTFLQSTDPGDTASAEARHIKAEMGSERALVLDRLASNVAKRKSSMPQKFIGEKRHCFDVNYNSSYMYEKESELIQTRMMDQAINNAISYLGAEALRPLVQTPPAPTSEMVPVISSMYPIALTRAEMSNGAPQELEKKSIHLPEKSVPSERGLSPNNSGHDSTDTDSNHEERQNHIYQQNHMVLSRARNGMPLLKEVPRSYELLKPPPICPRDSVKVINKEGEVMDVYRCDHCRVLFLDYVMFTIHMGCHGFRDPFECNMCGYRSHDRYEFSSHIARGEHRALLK
T7 sequence (Q96SW2 whole entry): as the sequence (Q96SW2 whole entry) above
T7 sequence (Q16531 whole entry partner): as the sequence (Q16531 whole entry partner) above
Briefly: Western-blot assay of substrate protein degradation in hPBMCs, IKZF3. It counts as cell-based. The settings on record: 24 hours of compound treatment, compounds tested at 50 nM and 500 nM (concentration of the table not stated).

Assay [11] has as its system NCI-H1975. Briefly: Tumor cell proliferation inhibition (CellTiter-Meiluncell Luminescent Cell Viability Assay), NCI-H1975. The settings on record: Homo sapiens, NCI-H1975, 96 h, read-out: inhibitory activity (IC50, nM) against tumor cells proliferation, H1975.

Bounds are passed on as bounds.

T4 sequence (P48729 whole entry): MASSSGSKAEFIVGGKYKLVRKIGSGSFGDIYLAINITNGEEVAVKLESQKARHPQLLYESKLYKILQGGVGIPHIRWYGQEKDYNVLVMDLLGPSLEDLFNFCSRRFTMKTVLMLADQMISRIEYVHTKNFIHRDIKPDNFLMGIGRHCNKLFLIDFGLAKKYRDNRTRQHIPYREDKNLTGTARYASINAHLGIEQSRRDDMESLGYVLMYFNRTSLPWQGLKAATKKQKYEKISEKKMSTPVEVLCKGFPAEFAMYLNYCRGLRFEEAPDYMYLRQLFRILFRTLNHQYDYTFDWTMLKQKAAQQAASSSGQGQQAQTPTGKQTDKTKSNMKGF
T4 sequence (Q96SW2 whole entry): as the sequence (Q96SW2 whole entry) above
T4 sequence (Q16531 whole entry partner): as the sequence (Q16531 whole entry partner) above
T1 sequence (P15170 whole entry): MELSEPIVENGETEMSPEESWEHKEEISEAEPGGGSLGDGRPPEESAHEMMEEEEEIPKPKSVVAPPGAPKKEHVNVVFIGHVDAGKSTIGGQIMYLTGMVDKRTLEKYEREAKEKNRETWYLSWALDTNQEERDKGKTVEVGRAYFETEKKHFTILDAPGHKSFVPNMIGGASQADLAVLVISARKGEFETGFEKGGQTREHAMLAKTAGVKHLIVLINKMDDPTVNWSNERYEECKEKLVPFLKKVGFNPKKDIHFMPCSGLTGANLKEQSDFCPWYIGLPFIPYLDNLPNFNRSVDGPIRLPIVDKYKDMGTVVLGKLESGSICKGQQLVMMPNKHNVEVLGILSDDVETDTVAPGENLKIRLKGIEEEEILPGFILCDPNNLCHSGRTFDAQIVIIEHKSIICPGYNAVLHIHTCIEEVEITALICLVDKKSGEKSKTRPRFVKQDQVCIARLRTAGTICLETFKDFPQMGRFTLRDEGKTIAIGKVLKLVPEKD
T1 sequence (Q96SW2 whole entry): as the sequence (Q96SW2 whole entry) above
T1 sequence (Q16531 whole entry partner): as the sequence (Q16531 whole entry partner) above
T5 sequence (Q13422 whole entry): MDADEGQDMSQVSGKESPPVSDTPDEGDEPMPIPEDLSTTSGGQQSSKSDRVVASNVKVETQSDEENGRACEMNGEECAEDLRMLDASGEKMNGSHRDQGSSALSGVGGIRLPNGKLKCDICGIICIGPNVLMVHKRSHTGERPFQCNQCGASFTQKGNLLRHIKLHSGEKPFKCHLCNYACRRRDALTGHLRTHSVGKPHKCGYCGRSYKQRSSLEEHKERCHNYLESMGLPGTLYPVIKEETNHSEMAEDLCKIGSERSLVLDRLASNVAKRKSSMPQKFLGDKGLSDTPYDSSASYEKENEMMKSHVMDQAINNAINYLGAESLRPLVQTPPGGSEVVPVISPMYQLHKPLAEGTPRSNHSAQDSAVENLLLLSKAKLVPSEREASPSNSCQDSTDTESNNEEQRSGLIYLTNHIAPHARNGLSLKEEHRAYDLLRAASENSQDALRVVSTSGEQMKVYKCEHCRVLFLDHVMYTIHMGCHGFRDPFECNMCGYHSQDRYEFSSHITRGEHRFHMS
T5 sequence (Q96SW2 whole entry): as the sequence (Q96SW2 whole entry) above
T5 sequence (Q16531 whole entry partner): as the sequence (Q16531 whole entry partner) above
T6 sequence (Q96SW2 whole entry): as the sequence (Q96SW2 whole entry) above

As to `Cc1ccc(C2CCN(Cc3ccc4c(c3)CN(C3CCC(=O)NC3=O)C4=O)CC2)s1` (stereo not shown) [GT-04573, 3-(5-((4-(5-methylthiophen-2-yl)piperidin-1-yl)methyl)-1-oxoisoindolin-2-yl)piperidine-2,6-dione], in assay [1], the “GSPT1 substrate protein remaining %” value is recorded as “A (0% ≤ substrate protein remaining % ≤ 80%)”. Further, the “Weel substrate protein remaining %” value in assay [2] is “A (0% ≤ substrate protein remaining % ≤ 80%)”. Also, the IC50 is 50 to 100 nM in assay [3]; 5 to 10 nM in [5]; 10 to 50 nM in assay [8]; 1 to 1.5 µM in assay [9]; 50 to 100 nM in assay [11]. For the same compound, the “IKZF2 substrate protein remaining %” value in assay [4] is “A (0% ≤ substrate protein remaining % ≤ 80%)”. The “CK1a substrate protein remaining %” value in [6] was “A (0% ≤ substrate protein remaining % ≤ 80%)”. For the same compound, the “IKZF 1 substrate protein remaining %” value in [7] is reported as “A (0% ≤ substrate protein remaining % ≤ 80%)”. Besides, the “IKZF3 substrate protein remaining %” value in [10] is recorded as “A (0% ≤ substrate protein remaining % ≤ 80%)”.
Turning to `O=C1CCC(N2Cc3cc(CN4CC=C(c5ccsc5)CC4)ccc3C2=O)C(=O)N1` (stereo not shown) [GT-04585, 3-(1-oxo-5-((4-(thiophen-3-yl)-3,6-dihydropyridin-1(2H)-yl)methyl)isoindolin-2-yl)piperidine-2,6-dione], the “GSPT1 substrate protein remaining %” value in [1] is given as “A (0% ≤ substrate protein remaining % ≤ 80%)”. Also, the “Weel substrate protein remaining %” value in assay [2] is on record as “A (0% ≤ substrate protein remaining % ≤ 80%)”. Also, the IC50 in assay [3] is 10 to 50 nM; in assay [5] it was 1 to 5 nM; in assay [8], 5 to 10 nM; in assay [9], below 0.5 µM; in assay [11], 10 to 50 nM. Also, the “IKZF2 substrate protein remaining %” value in assay [4] is given as “A (0% ≤ substrate protein remaining % ≤ 80%)”. In addition, the “CK1a substrate protein remaining %” value in assay [6] was “A (0% ≤ substrate protein remaining % ≤ 80%)”. The “IKZF 1 substrate protein remaining %” value in assay [7] was “A (0% ≤ substrate protein remaining % ≤ 80%)”. In addition, the “IKZF3 substrate protein remaining %” value in assay [10] is given as “A (0% ≤ substrate protein remaining % ≤ 80%)”.
Regarding `O=C1CCC(N2Cc3cc(CN4CCC(c5ccsc5)CC4)ccc3C2=O)C(=O)N1` (stereo not shown) [GT-04586, 3-(1-oxo-5-((4-(thiophen-3-yl)piperidin-1-yl)methyl)isoindolin-2-yl)piperidine-2,6-dione], in assay [1], the “GSPT1 substrate protein remaining %” value is “A (0% ≤ substrate protein remaining % ≤ 80%)”. In addition, in [2], the “Weel substrate protein remaining %” value was “B (80%< substrate protein remaining %≤ 100%)”. Further, the IC50 in assay [3] was 100 to 500 nM; in assay [5] it was 5 to 10 nM; in assay [8], 10 to 50 nM; in assay [9], 0.5 to 1 µM; in assay [11], 100 to 500 nM. Also, the “IKZF2 substrate protein remaining %” value in assay [4] is “A (0% ≤ substrate protein remaining % ≤ 80%)”. Besides, the “CK1a substrate protein remaining %” value in [6] was “B (80%< substrate protein remaining %≤ 100%)”. In addition, the “IKZF 1 substrate protein remaining %” value in [7] is listed as “B (80%< substrate protein remaining %≤ 100%)”. In assay [10], the “IKZF3 substrate protein remaining %” value is reported as “B (80%< substrate protein remaining %≤ 100%)”.
As to `Cc1cc(C2=CCN(Cc3ccc4c(c3)CN(C3CCC(=O)NC3=O)C4=O)CC2)cs1` (stereo not shown) [GT-04587, 3-(5-((4-(5-methylthiophen-3-yl)-3,6-dihydropyridin-1(2H)-yl)methyl)-1-oxoisoindolin-2-yl)piperidine-2,6-dione], the “GSPT1 substrate protein remaining %” value in [1] is given as “A (0% ≤ substrate protein remaining % ≤ 80%)”. Also, the “Weel substrate protein remaining %” value in assay [2] is on record as “A (0% ≤ substrate protein remaining % ≤ 80%)”. The IC50 was 10 to 50 nM in assay [3]; 1 to 5 nM in assay [5]; 1 to 5 nM in assay [8]; 0.5 to 1 µM in assay [9]; 5 to 10 nM in assay [11]. In addition, the “IKZF2 substrate protein remaining %” value in assay [4] is on record as “A (0% ≤ substrate protein remaining % ≤ 80%)”. In assay [6], the “CK1a substrate protein remaining %” value is “B (80%< substrate protein remaining %≤ 100%)”. Besides, the “IKZF 1 substrate protein remaining %” value in assay [7] was “A (0% ≤ substrate protein remaining % ≤ 80%)”. Moreover, in [10], the “IKZF3 substrate protein remaining %” value is recorded as “A (0% ≤ substrate protein remaining % ≤ 80%)”.
`Cc1cc(C2CCN(Cc3ccc4c(c3)CN(C3CCC(=O)NC3=O)C4=O)CC2)cs1` (stereo not shown) [GT-04588, 3-(5-((4-(5-methylthiophen-3-yl)piperidin-1-yl)methyl)-1-oxoisoindolin-2-yl)piperidine-2,6-dione]: the “GSPT1 substrate protein remaining %” value in assay [1] is listed as “A (0% ≤ substrate protein remaining % ≤ 80%)”. Moreover, the “Weel substrate protein remaining %” value in assay [2] was “B (80%< substrate protein remaining %≤ 100%)”. For the same compound, the IC50 in assay [3] fell in the range of 100 to 500 nM; in [5], 5 to 10 nM; in [8], 10 to 50 nM; in assay [9], 1 to 1.5 µM; in assay [11], 50 to 100 nM. Also, the “IKZF2 substrate protein remaining %” value in assay [4] is listed as “A (0% ≤ substrate protein remaining % ≤ 80%)”. Further, the “CK1a substrate protein remaining %” value in [6] was “B (80%< substrate protein remaining %≤ 100%)”. In assay [7], the “IKZF 1 substrate protein remaining %” value is recorded as “B (80%< substrate protein remaining %≤ 100%)”. In addition, in assay [10], the “IKZF3 substrate protein remaining %” value is reported as “B (80%< substrate protein remaining %≤ 100%)”.
Consider `O=C1CCC(N2Cc3cc(CN4CC=C(c5ccoc5)CC4)ccc3C2=O)C(=O)N1` (stereo not shown) [GT-04589, 3-(5-((4-(furan-3-yl)-3,6-dihydropyridin-1(2H)-yl)methyl)-1-oxoisoindolin-2-yl)piperidine-2,6-dione], for which, in assay [1], the “GSPT1 substrate protein remaining %” value is on record as “A (0% ≤ substrate protein remaining % ≤ 80%)”. Further, in [2], the “Weel substrate protein remaining %” value is “B (80%< substrate protein remaining %≤ 100%)”. Further, the IC50 was 500 to 1000 nM in assay [3]; 10 to 50 nM in assay [5]; 100 to 500 nM in assay [8]; below 0.5 µM in assay [9]; 100 to 500 nM in assay [11]. In addition, in assay [4], the “IKZF2 substrate protein remaining %” value is reported as “A (0% ≤ substrate protein remaining % ≤ 80%)”. For the same compound, the “CK1a substrate protein remaining %” value in assay [6] is given as “B (80%< substrate protein remaining %≤ 100%)”. Moreover, the “IKZF 1 substrate protein remaining %” value in assay [7] is recorded as “B (80%< substrate protein remaining %≤ 100%)”. The “IKZF3 substrate protein remaining %” value in assay [10] is on record as “B (80%< substrate protein remaining %≤ 100%)”.
As for `O=C1CCC(N2Cc3cc(CN4CC=C(c5c[nH]c6ncccc56)CC4)ccc3C2=O)C(=O)N1` (stereo not shown) [GT-04602, 3-(5-((4-(1H-pyrrolo[2,3-b]pyridin-3-yl)-3,6-dihydropyridin-1(2H)-yl)methyl)-1-oxoisoindolin-2-yl)piperidine-2,6-dione], the “GSPT1 substrate protein remaining %” value in assay [1] is on record as “A (0% ≤ substrate protein remaining % ≤ 80%)”. The “Weel substrate protein remaining %” value in assay [2] is recorded as “A (0% ≤ substrate protein remaining % ≤ 80%)”. Moreover, the IC50 was 10 to 50 nM in assay [3]; 1 to 5 nM in [5]; 10 to 50 nM in assay [8]; below 0.5 µM in assay [9]; 10 to 50 nM in assay [11]. The “IKZF2 substrate protein remaining %” value in assay [4] was “A (0% ≤ substrate protein remaining % ≤ 80%)”. Moreover, the “CK1a substrate protein remaining %” value in assay [6] is given as “A (0% ≤ substrate protein remaining % ≤ 80%)”. Further, the “IKZF 1 substrate protein remaining %” value in assay [7] is listed as “A (0% ≤ substrate protein remaining % ≤ 80%)”. Further, the “IKZF3 substrate protein remaining %” value in assay [10] is “A (0% ≤ substrate protein remaining % ≤ 80%)”.
With `O=C1CCC(N2Cc3cc(CN4CCN(c5cc(Cl)cc(Cl)c5)CC4)ccc3C2=O)C(=O)N1` (stereo not shown) [GT-04614, 3-(5-((4-(3,5-dichlorophenyl)piperazin-1-yl)methyl)-1-oxoisoindolin-2-yl)piperidine-2,6-dione], the “GSPT1 substrate protein remaining %” value in assay [1] is “A (0% ≤ substrate protein remaining % ≤ 80%)”. Also, the “Weel substrate protein remaining %” value in assay [2] was “A (0% ≤ substrate protein remaining % ≤ 80%)”. Moreover, the IC50 in assay [3] fell in the range of 10 to 50 nM; in assay [5] it was 1 to 5 nM; in assay [8], 10 to 50 nM; in assay [9], 0.5 to 1 µM; in assay [11] it was 10 to 50 nM. The “IKZF2 substrate protein remaining %” value in [4] is given as “B (80%< substrate protein remaining %≤ 100%)”. For the same compound, the “CK1a substrate protein remaining %” value in assay [6] is on record as “B (80%< substrate protein remaining %≤ 100%)”. In [7], the “IKZF 1 substrate protein remaining %” value is on record as “B (80%< substrate protein remaining %≤ 100%)”. In [10], the “IKZF3 substrate protein remaining %” value was “B (80%< substrate protein remaining %≤ 100%)”.

The values above are taken from patent EP4745137A1 (Gluetacs Therapeutics (Shanghai) Co., Ltd., priority 2023, dated 2025).
